Assay results: patent US8329669B2, “Composition and method for treatment of tumors” (Sanofi, priority 2006, dated 2012)

Key:
Format in all cases: cell-based
[1] = system: HCT116 cells; assay: Cell-Titer Blue viability of cells expressing YFP or full length Core 1 treated with apoptosis inducers
Experimental: To determine whether Core 1 protected against apoptosis induced by TRAIL or through other pathways, cells were treated with several different apoptosis inducers and assayed for cell viability. Fas Ligand (FasL), also a TNFα family member which signals through Death Receptors, uses the same adaptor protein FADD to induce caspase activation and apoptosis. Cells stably expressing either yellow florescent protein (YFP) or human full length Core 1 were treated with 100 ng/ml of TRAIL or 16 ng/ml of FasL for 24 hours. Cell viability was assayed using the Cell-Titer Blue assay, where conversion of the indicator dye resazurin is used to measure the metabolic capacity of cells, an indicator of cell viability. […] Cells were then treated with two compounds which induce apoptosis through non-death receptor pathways. Camptothecin inhibits DNA topoisomerase 1, ultimately leading to DNA damage and death, while Taxotere is an inhibitor of microtubule depolymerization, which prevents cell division and leads to mitotic death.

[2] = system: HCT116 cells; assay: Western blot for caspase activation upon TRAIL stimulation; conditions: full length Core 1 vs YFP expressing HCT116; 200 ng/ml TRAIL, 24 hours
Experimental: Cells stably expressing YFP or human full length Core 1 were treated for 24 hours with 200 ng/ml TRAIL, lysed, and western blotted with antibodies to several caspases. Caspase activation was detected by the cleavage of the full length pro-caspase to the smaller, active form. […] Thus, Core 1 expression inhibits the full activation of caspases 8, 9, and 3 upon TRAIL stimulation.

[3] = system: HCT116 cells; assay: Cytochrome c release into the cytoplasmic fraction (ELISA); conditions: 100 ng/ml TRAIL, 24 hours
Experimental: HCT116 cells stably expressing YFP or human full length Core 1 were treated with 100 ng/ml TRAIL for 24 hours. Control cells stably expressing YFP or human full length Core 1 were not treated with TRAIL. The cells were then harvested. Media containing floating cells was first removed to new tubes. The remaining adherent cells were detached using a cell scraper in ice-cold PBS and added to the media containing floating cells. The cells were pelleted by centrifuging at 1000×g for 10 minutes at 4° C. and resuspended in an iso-osmotic buffer (0.3M sucrose, 10 mM Tris pH 7.5, 1 mM EDTA, EDTA-free protease tablet). After a five minute incubation on ice, the cells were lysed using dounce homogenizers until about 90% of the plasma membranes were lysed. This was done to isolate the cytoplasmic fraction. The extent of cell lysis was monitored by mixing 10 μl of lysate with trypan blue and viewed on a hemocytometer. […] The concentration of lysates was determined using either the BioRad DC protein assay (BioRad) or the BCA method (Pierce, Rockford, Ill.). To quantitatively detect cytochrome c levels, lysates were assayed for cytochrome c using a Function ELISA cytochrome c kit (Active Motif, Carlsbad, Calif.) [FIG. 3B]. In untreated cells, low baseline levels of cytochrome c were detected in the cytoplasm.

[4] = system: HCT116 cells; assay: Annexin V apoptosis assay (FACS) after TRAIL treatment; conditions: 50 ng/ml TRAIL
Experimental: To further characterize the ability of Core 1 to protect against TRAIL-induced apoptosis, the pEYK vector containing the partial cDNA of UQCRC1 isolated from the screen was used to directly infect HCT116 cells. Cells expressing dominant-negative FADD (dnFADD), which inhibits the signal from the TRAIL receptors, was used as a control. Cells were treated for 48 hours with 0, 10 or 50 ng/mL of TRAIL and assayed for Annexin V, an early marker of apoptosis [FIG. 2A]. Expression of dnFADD inhibited TRAIL-induced apoptosis, with 78% of cells Annexin V negative or non-apoptotic at 50 ng/ml TRAIL.
To confirm that the protection observed from the partial Core 1 protein is indicative of its function, the full length human Core 1 protein was cloned into the pLenti-vector (containing a HA-tag) and used to infect HCT116 to produce a stable cell line expressing Core 1. A control cell line was prepared similarly to express Yellow Fluorescent Protein (YFP). To confirm the protein expression of full length Core 1, cells were homogenized to prepare a mitochondrial and cytoplasmic lysate and western blotted with antibodies to Core 1 [FIG. 2C]. The endogenous Core 1 is detected in the mitochondrial fraction of both YFP and Core 1 expressing cells. Exogenously expressed Core 1 is HA-tagged and is detected as a higher migrating band in the mitochondrial fraction, as well as the cytoplasmic fraction. […] Thus, Core 1 is expressed in these HCT116 stable cell lines. To determine if full length Core 1 also protects against TRAIL-induced apoptosis, cells were treated with TRAIL and assayed for apoptosis by FACS analysis for cells that were Annexin V positive or negative.

[5] = system: HCT116 cells; assay: JC-1 mitochondrial membrane potential assay (FACS)
Experimental: As Core 1 is a subunit of the mitochondrial respiratory Complex III, work was conducted to determine whether expression of Core 1 protects against mitochondrial depolarization, a critical step in mitochondrial mediated apoptosis. Changes in mitochondrial membrane potential during TRAIL treatment were studied using the JC-1 Assay Kit (Molecular Probes). JC-1 (5, 5′,6,6′,-tetrachloro-1,1′,3,3′-tetraethylbenzimidazolylcarbocyanine) is a cationic dye which has a diffuse green fluorescence in the cytoplasm. The accumulation of JC-1 in the mitochondria, which depends on intact, polarized mitochondria, results in the formation of red fluorescent aggregates. The ratio of green to red fluorescence was measured for the cells described in Example 2 above by Fluorescence-activated Cell Sorter (FACS) analysis. FACS is a method to sort cells based on specific cellular surface markers (e.g., red or green fluorescence). The above ratio is plotted as a percentage of polarized mitochondria.

Molecule: CC(=O)O[C@@]12CO[C@@H]1C[C@H](O)[C@@]1(C)C(=O)[C@H](O)C3=C(C)[C@@H](OC(=O)[C@H](O)[C@@H](NC(=O)OC(C)(C)C)c4ccccc4)C[C@@](O)([C@@H](OC(=O)c4ccccc4)[C@H]21)C3(C)C [Taxotere]
- difference in viability between cells expressing YFP or full length Core 1 ([1]; 10 nM Taxotere in dimethyl sulfoxide): No difference in viability

Molecule: CC[C@@]1(O)C(=O)OCc2c1cc1n(c2=O)Cc2cc3ccccc3nc2-1 [Camptothecin]
- difference in viability between cells expressing YFP or full length Core 1 ([1]; 200 nM Camptothecin in dimethyl sulfoxide): No difference in viability

Molecule: TRAIL: recombinant human TRAIL (BioMol), member of the TNF superfamily that induces apoptosis
- caspase 8 activation [2]: less active caspase 8
- caspase 9 and caspase 3 activation [2]: reduced activation
- increase in cytochrome c released into the cytoplasmic fraction ([3]; HCT116 expressing YFP, vs untreated): 10 fold
- cytochrome c released, relative to YFP cells ([3]; HCT116 expressing full length Core 1): only one-half as much
- cells Annexin V negative ([4]; HCT116 expressing GFP, 48 hours): 2%
- cells Annexin V negative or non-apoptotic ([4]; HCT116 expressing dnFADD, 48 hours): 78%
- cells Annexin V negative ([4]; HCT116 expressing partial Core 1, 48 hours): 14.5%
- protection against TRAIL-induced apoptosis ([4]; full length Core 1 vs YFP expressing cells): 2.5 fold
- increase in protection from TRAIL induced apoptosis ([4]; partial Core 1 vs GFP expressing cells): 7 fold
- polarized mitochondria remaining ([5]; HCT116 expressing GFP, 50 ng/ml TRAIL): 7%
- mitochondrial depolarization ([5]; HCT116 expressing dnFADD, all concentrations of TRAIL): completely protected
- polarized mitochondria ([5]; HCT116 expressing partial Core 1, 50 ng/ml TRAIL): 38%
- protection from mitochondrial depolarization over GFP ([5]; partial Core 1 vs GFP expressing cells, 50 ng/ml TRAIL): 5 fold

B1: FasL: Fas Ligand, TNFα family member which signals through Death Receptors (protein, UniProt P48023 130-281, looked up)
Tumor necrosis factor ligand …: QIGHPSPPPEKKELRKVAHLTGKSNSRSMPLEWEDTYGIVLLSGVKYKKGGLVINETGLYFVYSKVYFRGQSCNNLPLSHKVYMRNSKYPQDLVMMEGKMMSYCTTGQMWARSSYLGAVFNLTSADHLYVNVSELSLVNFEESQTFFGLYKL
- protection from FasL induced apoptosis by Core 1 expression ([1]; Core 1 vs YFP expressing cells, 16 ng/ml FasL, 24 hours): about a three-fold protection
